Common to all, as to type: cell-based
Experiment [1] deals with colon 12 tumor initiating cells. Nature of the experiment: Colon tumor-initiating cell growth inhibition, Alamar Blue assay. The note with it: 216 h, colon TICs, 9 days culture, read-out: Tumor Initiating Cell Line GI50 Range colon 12. From the text: (§1) Non-tissue or tissure cultured treated T-75 flask and 96-well plates were purchased from VWR. Vitamin B-27 supplement, MEM NEAA (minimum essential medium non essential amino acids), sodium pyruvate, L-glutamine, N2 supplement, penicillin-streptomycin and fungizone/amphotericin B were obtained from Invitrogen. Lipid mixture, heparin and EGF were purchased from Sigma; bFGF from BD Biosciences. Colon tumor initiating cells (TICs) were routinely maintained using non-tissue cultured treated T-75 flasks in DMEM:F12 medium containing 0.2XB-27 supplement, 4 ug/ml heparin, 1XMEM NEAA, 1Xsodium pyruvate, 1 mM glutamine, 10 pg/ul bFGF, 20 pg/ul EGF, 1×N2 supplement, lipid mixture, penicillin-streptomycin and fungizone/amphotericin B. Ovarian TICs were routinely maintained using tissue cultured treated T-75 flasks in DMEM:F12 medium containing 1XB-27 supplement, 4 ug/ml heparin, 20 pg/ul bFGF, 20 pg/ul EGF and penicillin-streptomycin.
(§2) Compounds described herein were dissolved in DMSO and further diluted in cell culture medium for GI50 determination. Colon TICs were trypsinized and seeded into non-tissue cultured treated 96-well plates with 4,000 cells/well. After 24 h, compound was added into the cell culture at different concentrations, and the final concentration of DMSO was adjusted to 0.1%. Cells were then cultured at 37° C. for 9 days. Ovarian TICs were trypsinized and seeded into tissue cultured treated 96-well plates with 1,000 cells/well. After 24 h, compound was added into the cell culture at different concentrations, and the final concentration of DMSO was adjusted to 0.1%. Cells were then cultured at 37° C. for 6 days. Cell viability was assessed by Alamar Blue assay: 10 ul of Alamar Blue was added into each well. After 4 hours incubation at 37° C., fluorescence was recorded at excitation 544 and emission 590. GI50 (Growth inhibition) was calculated using GraphPad Prism 4.0 software. Cell growth inhibition data for compounds described herein is tabulated below (Table 2). The GI50 ranges are indicated as “A,” and “B”, for values less than or equal to 0.1 μM: those greater than 0.1 μM and less than or equal to 0.5 μM, respectively.
Background: Alamar Blue is a resazurin reagent that responds to reducing activity.

Experiment [2] concerns HCT116 colon cancer cells. Nature of the experiment: Cancer cell growth inhibition, Sulforhodamine B assay. The following applies: Homo sapiens, HCT-116, 120 h; HCT116, 5 days culture, SRB; read-out: Cancer Cell Line GI50 Range HCT116. Here is the method:
(§3) Breast cancer cells (MDA-MB-231), colon cancer cells (HCT116) and ovarian cancer cells (PA-1) were seeded (1000 to 4000 in 80 μl per well depending on the cell growth rate) into 96 well plates 24 hours before compound overlay. Compounds were prepared as 10 mM stock solutions in 100% DMSO which were diluted with DMEM (Dulbecco's Modified Eagle's Medium) cell growth Medium (Invitrogen, Burlington, ON, Canada) containing 10% FBS (Fetal Bovine Serum) to concentrations ranging from 50 nM to 250 μM. Aliquots (20 μl) from each concentration were overlaid to 80 μl of the pre-seeded cells in the 96 well plates to make final concentrations of 10 nM to 50 μM. The cells were cultured for 5 days before the Sulforhodamine B assay (SRB) was performed to determine the compound's cell growth inhibition activity.
(§4) Sulforhodamine B (purchased from Sigma, Oakville, ON, Canada) is a water-soluble dye that binds to the basic amino acids of the cellular proteins. Thus, colorimetric measurement of the bound dye provides an estimate of the total protein mass that is related to the cell number. the cells are fixed in situ by gently aspirating off the culture media and adding 50 μl ice cold 10% Trichloroacetic Acid (TCA) per well and incubate at 4° C. for 30-60 min. The plates are washed with H2O five times and allowed to air dry for 5 min. Addition of 50 μl 0.4% (w/v) SRB solution in 1% (v/v) acetic acid to each well and incubatation for 30 min at RT completes the staining reaction. Following staining, plates are washed four times with 1% acetic acid to remove unbound dye and then allowed to air dry for 5 min. The stain is solubilized with 100 μl of 10 mM Tris pH 10.5 per well. Absorbance is read at 570 nm.
(§5) The percentage (%) of relative growth inhibition was calculated by comparing to DMSO treated only cells (100%). GI50's were determined for compounds with cytotoxic activity. The GI50 was calculated using GraphPad PRISM software (GraphPad Software, Inc., San Diego, Calif., USA). GI50 (growth inhibition) is the compound concentration that causes 50% inhibition of cell growth.
(§6) In Table 1 below, GI50 value ranges for several compound examples against breast cancer cell lines (MDA-MB-231), colon cancer cell lines (HCT116) and ovarian cancer cell lines (PA-1) are given. […] The GI50 ranges are indicated as “A,” “B,” and “C,” for values less than or equal to 0.1 μM; those greater than 0.1 μM and less than or equal to 0.5 μM; and those greater than 0.5 μM, respectively.
In general terms: In SRB staining, fixed cells bind dye roughly in proportion to their protein.

The subject of experiment [3] is MDA-MB-231 breast cancer cells. The experiment is described as above. The following applies: Homo sapiens, 120 h; MDA-MB-231, 5 days culture, SRB; read-out: Cancer Cell Line GI50 Range MDA-MB-231. Here is the method:
as §3, §4, §5, §6

Experiment [4] concerns PA-1 ovarian cancer cells. Described as above. The following applies: 120 h; PA-1, 5 days culture, SRB; read-out: Cancer Cell Line GI50 Range PA-1. Here is the method: as §3, §4, §5, §6
The subject of experiment [5] is ovarian 2393A tumor initiating cells. Briefly: Ovarian tumor-initiating cell growth inhibition, Alamar Blue assay. The note with it: 144 h, ovarian TICs, 6 days culture, read-out: Tumor Initiating Cell Line GI50 Range ovarian 2393A.
Source text: as §1, §2

A value given as a limit tells only on which side of the number the result lay.

In general, GI50 refers to the concentration that inhibits growth by half. With `O=C(NC(c1ncccn1)C1CCCC1)c1ccc2[nH]nc(-c3ccc(N4CC5(COC5)C4)cc3)c2c1` (stereo not shown) [Example A24, 3-(4-(2-oxa-6-azaspiro[3.3]heptan-6-yl)phenyl)-N-(cyclopentyl(pyrimidin-2-yl)methyl)-1H-indazole-5-carboxamide], the concentration for 50% growth inhibition (GI50) in experiment [1], in experiment [2], in experiment [3], in experiment [4] and in experiment [5] was at most 100 nM each time.
In the case of `O=C(NC(c1ccccn1)C1CCCC1)c1ccc2[nH]nc(-c3ccc(N4CC5(COC5)C4)cc3)c2c1` (stereo not shown) [Example A7, 3-(4-(2-Oxa-6-azaspiro[3.3]heptan-6-yl)phenyl)-N-(cyclopentyl(pyridin-2-yl)methyl)-1H-indazole-5-carboxamide], the GI50 in experiment [1], in experiment [2], in experiment [3], in experiment [4] and in experiment [5] was at most 100 nM each time.
`O=C(N[C@@H](c1ccccn1)C1CC1)c1ccc2[nH]nc(-c3ccc(N4CC5(COC5)C4)cc3)c2c1` [Example A6, (R)-3-(4-(2-oxa-6-azaspiro[3.3]heptan-6-yl)phenyl)-N-(cyclopropyl(pyridin-2-yl)methyl)-1H-indazole-5-carboxamide]: the GI50 in experiment [1] was 100 to 500 nM; in experiment [2], at most 100 nM; in experiment [3], 100 to 500 nM; in experiment [4], at most 100 nM; in experiment [5], 100 to 500 nM.
Regarding `CC(C)[C@H](NC(=O)c1ccc2[nH]nc(-c3ccc(N4CC5(COC5)C4)cc3)c2c1)c1ccccc1Cl` [Example A12, 3-(4-(2-Oxa-6-azaspiro[3.3]heptan-6-yl)phenyl)-N-((S)-1-(2-chlorophenyl)-2-methylpropyl)-1H-indazole-5-carboxamide], the GI50 in experiment [1], in experiment [2], in experiment [3], in experiment [4] and in experiment [5] was at most 100 nM throughout.
`O=C(N[C@H](c1ccccn1)C1CC1)c1ccc2[nH]nc(-c3ccc(N4CC5(CCOCC5)C4)cc3)c2c1` [Example A18, (S)-3-(4-(7-Oxa-2-azaspiro[3.5]nonan-2-yl)phenyl)-N-(cyclopropyl(pyridin-2-yl)methyl)-1H-indazole-5-carboxamide]: the GI50 is at most 100 nM in experiment [1]; at most 100 nM in experiment [2]; at most 100 nM in experiment [3]; at most 100 nM in experiment [4]; 100 to 500 nM in experiment [5].

(Values after patent US8980934B2, “Kinase inhibitors and method of treating cancer with same” (University Health Network, priority 2012, dated 2015).)
